From patent publication US10344060B2 (priority 2013, dated 2019)
Read-outs that look alike come from different tables or passages of the source.

Assays:
Experiment in all cases: cell-based
[1] = target: T1, hNav1.7 (Homo sapiens, UniProt Q15858); type: cell-based; conditions: for IC50: PatchXpress, read-out: PX hNav1.7 Tonic IC50; for Nav1.4/Nav1.7 / Nav1.5/Nav1.7: ratio of PX tonic IC50 values
[2] = target: hNav1.6 (Homo sapiens, UniProt Q9UQD0); type: cell-based; conditions: for Nav1.6/Nav1.7 / IC50: Table 15; for Nav1.6/Nav1.7: ratio of PX tonic IC50 values; for IC50: read-out: PX hNav1.6 Tonic IC50
Sequence of hNav1.6 (Q9UQD0 whole entry): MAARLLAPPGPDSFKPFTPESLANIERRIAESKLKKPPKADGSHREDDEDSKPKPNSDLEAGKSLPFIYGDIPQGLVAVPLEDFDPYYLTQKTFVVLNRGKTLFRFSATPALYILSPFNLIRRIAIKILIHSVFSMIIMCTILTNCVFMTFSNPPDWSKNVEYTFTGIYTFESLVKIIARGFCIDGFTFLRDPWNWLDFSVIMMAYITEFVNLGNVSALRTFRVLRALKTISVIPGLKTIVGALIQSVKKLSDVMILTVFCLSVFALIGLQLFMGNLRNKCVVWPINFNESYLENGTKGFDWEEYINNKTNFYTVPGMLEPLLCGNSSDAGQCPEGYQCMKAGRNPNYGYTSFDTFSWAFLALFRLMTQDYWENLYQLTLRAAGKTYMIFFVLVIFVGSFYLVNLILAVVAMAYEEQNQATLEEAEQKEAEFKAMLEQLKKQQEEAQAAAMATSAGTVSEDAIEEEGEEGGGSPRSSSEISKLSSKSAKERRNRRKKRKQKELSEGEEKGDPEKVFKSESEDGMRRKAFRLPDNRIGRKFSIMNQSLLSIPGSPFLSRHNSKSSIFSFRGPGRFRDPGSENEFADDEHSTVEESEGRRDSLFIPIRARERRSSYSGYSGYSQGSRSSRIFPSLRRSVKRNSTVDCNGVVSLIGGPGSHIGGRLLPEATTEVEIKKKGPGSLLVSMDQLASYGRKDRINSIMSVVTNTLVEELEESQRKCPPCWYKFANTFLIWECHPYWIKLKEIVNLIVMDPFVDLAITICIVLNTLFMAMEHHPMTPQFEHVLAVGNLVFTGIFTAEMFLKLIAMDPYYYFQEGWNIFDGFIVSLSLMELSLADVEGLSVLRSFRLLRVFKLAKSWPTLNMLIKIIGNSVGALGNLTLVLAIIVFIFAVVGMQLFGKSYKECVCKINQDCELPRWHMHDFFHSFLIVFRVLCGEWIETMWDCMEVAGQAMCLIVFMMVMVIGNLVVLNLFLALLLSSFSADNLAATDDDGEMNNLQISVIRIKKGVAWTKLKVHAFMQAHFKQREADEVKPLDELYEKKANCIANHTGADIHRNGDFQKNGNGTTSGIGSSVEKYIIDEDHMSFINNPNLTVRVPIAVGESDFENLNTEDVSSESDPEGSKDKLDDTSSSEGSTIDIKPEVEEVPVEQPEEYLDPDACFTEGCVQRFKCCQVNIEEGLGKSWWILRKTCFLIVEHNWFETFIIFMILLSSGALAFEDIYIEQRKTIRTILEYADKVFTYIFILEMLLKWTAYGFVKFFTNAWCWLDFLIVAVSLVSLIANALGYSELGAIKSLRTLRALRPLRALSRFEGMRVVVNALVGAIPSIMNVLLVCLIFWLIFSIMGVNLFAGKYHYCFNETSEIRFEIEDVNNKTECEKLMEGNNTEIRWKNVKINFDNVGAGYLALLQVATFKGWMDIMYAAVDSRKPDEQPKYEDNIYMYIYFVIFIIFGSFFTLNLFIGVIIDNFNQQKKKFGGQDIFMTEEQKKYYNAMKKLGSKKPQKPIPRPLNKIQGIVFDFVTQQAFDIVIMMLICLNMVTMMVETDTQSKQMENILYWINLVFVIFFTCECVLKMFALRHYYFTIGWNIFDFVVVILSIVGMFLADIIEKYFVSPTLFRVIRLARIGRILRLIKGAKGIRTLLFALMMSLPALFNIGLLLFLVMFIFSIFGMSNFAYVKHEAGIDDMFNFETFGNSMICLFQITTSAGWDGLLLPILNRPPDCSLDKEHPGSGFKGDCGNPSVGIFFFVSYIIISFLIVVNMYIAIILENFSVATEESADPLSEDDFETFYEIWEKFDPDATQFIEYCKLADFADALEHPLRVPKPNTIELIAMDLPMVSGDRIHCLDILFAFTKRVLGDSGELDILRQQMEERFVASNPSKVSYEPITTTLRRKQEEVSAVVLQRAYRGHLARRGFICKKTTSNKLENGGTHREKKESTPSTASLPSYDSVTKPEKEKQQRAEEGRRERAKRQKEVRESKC

[3] = target: T1, hNav1.7; conditions: ratio of IonWorks Quattro IC50 values

T1 sequence (Q15858 whole entry): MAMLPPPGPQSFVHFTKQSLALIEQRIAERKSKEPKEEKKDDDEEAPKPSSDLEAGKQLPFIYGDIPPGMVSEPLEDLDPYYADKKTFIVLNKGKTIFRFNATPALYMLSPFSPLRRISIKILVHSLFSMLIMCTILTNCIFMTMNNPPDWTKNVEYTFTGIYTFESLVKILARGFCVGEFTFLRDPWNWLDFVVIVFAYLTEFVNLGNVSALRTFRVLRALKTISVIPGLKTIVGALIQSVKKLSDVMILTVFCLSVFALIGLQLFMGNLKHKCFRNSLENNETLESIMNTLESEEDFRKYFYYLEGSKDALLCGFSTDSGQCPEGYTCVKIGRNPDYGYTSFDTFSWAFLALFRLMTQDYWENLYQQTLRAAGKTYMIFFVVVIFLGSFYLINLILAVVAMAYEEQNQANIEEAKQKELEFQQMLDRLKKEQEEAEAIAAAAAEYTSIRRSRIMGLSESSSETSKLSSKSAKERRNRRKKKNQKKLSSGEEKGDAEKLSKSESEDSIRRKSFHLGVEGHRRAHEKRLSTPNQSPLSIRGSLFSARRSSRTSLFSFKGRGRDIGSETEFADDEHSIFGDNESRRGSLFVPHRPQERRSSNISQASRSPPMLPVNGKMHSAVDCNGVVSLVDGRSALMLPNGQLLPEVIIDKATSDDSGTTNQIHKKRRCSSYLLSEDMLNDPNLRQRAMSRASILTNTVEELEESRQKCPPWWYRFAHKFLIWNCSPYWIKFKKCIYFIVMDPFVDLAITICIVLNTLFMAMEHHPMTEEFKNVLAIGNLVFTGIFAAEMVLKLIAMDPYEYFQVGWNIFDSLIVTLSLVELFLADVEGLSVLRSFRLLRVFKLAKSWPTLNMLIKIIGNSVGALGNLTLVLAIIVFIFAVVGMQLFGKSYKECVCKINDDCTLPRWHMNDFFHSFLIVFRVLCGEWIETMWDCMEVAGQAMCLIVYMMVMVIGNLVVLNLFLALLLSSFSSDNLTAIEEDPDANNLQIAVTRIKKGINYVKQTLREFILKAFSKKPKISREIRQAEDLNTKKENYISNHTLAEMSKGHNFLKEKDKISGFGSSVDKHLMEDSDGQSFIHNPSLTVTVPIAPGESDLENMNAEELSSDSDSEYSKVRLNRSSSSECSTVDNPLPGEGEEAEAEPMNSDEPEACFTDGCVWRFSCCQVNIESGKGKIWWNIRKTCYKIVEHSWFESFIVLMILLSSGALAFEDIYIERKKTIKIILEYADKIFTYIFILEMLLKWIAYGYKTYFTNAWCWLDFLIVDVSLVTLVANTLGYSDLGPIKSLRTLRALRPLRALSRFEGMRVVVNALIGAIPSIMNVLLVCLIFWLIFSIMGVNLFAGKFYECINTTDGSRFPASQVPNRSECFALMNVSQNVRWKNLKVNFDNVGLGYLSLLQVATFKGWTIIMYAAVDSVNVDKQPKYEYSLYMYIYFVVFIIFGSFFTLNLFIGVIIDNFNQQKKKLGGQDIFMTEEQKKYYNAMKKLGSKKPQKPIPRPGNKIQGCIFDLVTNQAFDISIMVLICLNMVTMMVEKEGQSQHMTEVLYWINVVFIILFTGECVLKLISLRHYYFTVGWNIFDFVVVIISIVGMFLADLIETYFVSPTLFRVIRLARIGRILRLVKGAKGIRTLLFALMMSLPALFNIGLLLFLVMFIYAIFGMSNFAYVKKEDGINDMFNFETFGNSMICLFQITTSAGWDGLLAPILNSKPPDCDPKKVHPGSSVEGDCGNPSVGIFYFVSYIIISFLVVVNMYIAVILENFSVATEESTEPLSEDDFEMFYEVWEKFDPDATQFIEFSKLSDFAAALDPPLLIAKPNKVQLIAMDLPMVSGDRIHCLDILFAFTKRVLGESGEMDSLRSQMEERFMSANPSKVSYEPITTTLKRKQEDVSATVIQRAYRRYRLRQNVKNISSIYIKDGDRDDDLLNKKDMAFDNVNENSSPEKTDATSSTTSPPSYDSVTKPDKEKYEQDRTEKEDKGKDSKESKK

| SMILES | Nav1.4/Nav1.7 ([1]; Table 11) | Nav1.5/Nav1.7 ([1]; Table 11) | Nav1.4/Nav1.7 ([3]; Nav1.4 over Nav1.7) | other results |
| --- | --- | --- | --- | --- |
| CC[C@H](C)[C@H](NC(=O)[C@@H](NC(=O)[C@H](CCCCN)NC(=O)[C@H](CCCNC(=N)N)NC(=O)[C@@H]1CSSC[C@@H]2NC(=O)[C@H](C)NC(=O)[C@H](CCCNC(=N)N)NC(=O)[C@H](CCCCN)NC(=O)[C@H](CO)NC(=O)[C@H](CC(=O)O)NC(=O)[C@@H]3CSSC[C@H](NC(=O)[C@H](CCCNC(=N)N)NC(=O)[C@H](CC(C)C)NC(=O)CNC(=O)[C@H](CCC(=O)O)NC(=O)[C@H](CSSC[C@H](NC(=O)[C@@H](N)Cc4ccc(O)cc4)C(=O)N[C@@H](CCC(N)=O)C(=O)N[C@@H](CCC(=O)O)C(=O)N[C@@H](Cc4c[nH]c5ccccc45)C(=O)N[C@@H](CCSC)C(=O)N[C@@H](Cc4c[nH]c5ccccc45)C(=O)N[C@@H]([C@@H](C)O)C(=O)N3)NC2=O)C(=O)N[C@@H](CCCCN)C(=O)N[C@@H](CC(C)C)C(=O)N[C@@H](Cc2c[nH]c3ccccc23)C(=O)N1)[C@@H](C)CC)C(N)=O [compound 51] | – | – | – | IC50 ([1]; tonic, Table 11): 847 nM; Nav1.6/Nav1.7 [2]: >12; IC50 [2]: > 10000 nM |
| CC[C@H](C)[C@H](NC(=O)[C@@H](NC(=O)[C@H](CCCCN)NC(=O)[C@H](CCCNC(=N)N)NC(=O)[C@@H]1CSSC[C@@H]2NC(=O)[C@H](C)NC(=O)[C@H](CCCNC(=N)N)NC(=O)[C@H](CCCCN)NC(=O)[C@H](CO)NC(=O)[C@H](CC(=O)O)NC(=O)[C@@H]3CSSC[C@H](NC(=O)[C@H](CC(=O)O)NC(=O)[C@H](CC(C)C)NC(=O)CNC(=O)[C@H](CCC(=O)O)NC(=O)[C@H](CSSC[C@H](NC(=O)[C@@H](N)Cc4ccc(O)cc4)C(=O)N[C@@H](CCC(N)=O)C(=O)N[C@@H](CCCCN)C(=O)N[C@@H](Cc4c[nH]c5ccccc45)C(=O)N[C@@H](CCSC)C(=O)N[C@@H](Cc4c[nH]c5ccccc45)C(=O)N[C@@H]([C@@H](C)O)C(=O)N3)NC2=O)C(=O)N[C@@H](CCCCN)C(=O)N[C@@H](CC(C)C)C(=O)N[C@@H](Cc2c[nH]c3ccccc23)C(=O)N1)[C@@H](C)CC)C(N)=O [compound 115] | 10 | 4 | 53 | – |
| CC[C@H](C)[C@H](NC(=O)[C@H](CCCNC(N)=O)NC(=O)[C@H](CCCCN)NC(=O)[C@H](CCCNC(=N)N)NC(=O)[C@@H]1CSSC[C@@H]2NC(=O)[C@H](C)NC(=O)[C@H](CCCNC(=N)N)NC(=O)[C@H](CCCCN)NC(=O)[C@H](CO)NC(=O)[C@H](CC(=O)O)NC(=O)[C@@H]3CSSC[C@H](NC(=O)[C@H](CCC(=O)O)NC(=O)[C@H](CC(C)C)NC(=O)CNC(=O)[C@H](CCC(=O)O)NC(=O)[C@H](CSSC[C@H](NC(=O)[C@@H](N)Cc4ccc(O)cc4)C(=O)N[C@@H](CCC(N)=O)C(=O)N[C@@H](CCCCN)C(=O)N[C@@H](Cc4c[nH]c5ccccc45)C(=O)N[C@@H](CCSC)C(=O)N[C@@H](Cc4c[nH]c5ccccc45)C(=O)N[C@@H]([C@@H](C)O)C(=O)N3)NC2=O)C(=O)N[C@@H](CCCCN)C(=O)N[C@@H](CC(C)C)C(=O)N[C@@H](Cc2c[nH]c3ccccc23)C(=O)N1)C(N)=O [compound 135] | 1075 | >1786 | 46 | – |
| CC[C@H](C)[C@H](NC(=O)[C@@H](NC(=O)[C@H](CCCCN)NC(=O)[C@H](CCCNC(=N)N)NC(=O)[C@@H]1CSSC[C@@H]2NC(=O)[C@H](C)NC(=O)[C@H](CCCNC(=N)N)NC(=O)[C@H](CCCCN)NC(=O)[C@H](CO)NC(=O)[C@H](CC(=O)O)NC(=O)[C@@H]3CSSC[C@H](NC(=O)[C@H](Cc4ccc(O)cc4)NC(=O)[C@H](CC(C)C)NC(=O)CNC(=O)[C@H](CCC(=O)O)NC(=O)[C@H](CSSC[C@H](NC(=O)[C@@H](N)Cc4ccc(O)cc4)C(=O)N[C@@H](CCC(N)=O)C(=O)N[C@@H](CCCCN)C(=O)N[C@@H](Cc4c[nH]c5ccccc45)C(=O)N[C@@H](CCSC)C(=O)N[C@@H](Cc4c[nH]c5ccccc45)C(=O)N[C@@H]([C@@H](C)O)C(=O)N3)NC2=O)C(=O)N[C@@H](CCCCN)C(=O)N[C@@H](CC(C)C)C(=O)N[C@@H](Cc2c[nH]c3ccccc23)C(=O)N1)[C@@H](C)CC)C(N)=O [compound 124] | 266 | >1695 | 43 | – |
| CC[C@H](C)[C@H](NC(=O)[C@@H](NC(=O)[C@H](CCCCN)NC(=O)[C@H](CCCNC(=N)N)NC(=O)[C@@H]1CSSC[C@@H]2NC(=O)[C@H](C)NC(=O)[C@H](CCCNC(=N)N)NC(=O)[C@H](CCCCN)NC(=O)[C@H](CO)NC(=O)[C@H](CC(=O)O)NC(=O)[C@@H]3CSSC[C@H](NC(=O)[C@H](CCC(=O)O)NC(=O)[C@H](CC(C)C)NC(=O)CNC(=O)[C@H](CCC(=O)O)NC(=O)[C@H](CSSC[C@H](NC(=O)[C@@H](N)Cc4ccc(O)cc4)C(=O)N[C@@H](CCC(N)=O)C(=O)N[C@@H](CCCCN)C(=O)N[C@@H](Cc4c[nH]c5ccccc45)C(=O)N[C@@H](CCSC)C(=O)N[C@@H](Cc4c[nH]c5ccccc45)C(=O)N[C@@H]([C@@H](C)O)C(=O)N3)NC2=O)C(=O)N[C@@H](CCCCN)C(=O)N[C@@H](CC(C)C)C(=O)N[C@@H](Cc2c[nH]c3ccccc23)C(=O)N1)C(C)C)C(N)=O [compound 133] | 320 | 1341 | 51 | – |
| CC[C@H](C)[C@H](NC(=O)[C@H](Cc1ccc(O)cc1)NC(=O)[C@H](CCCCN)NC(=O)[C@H](CCCNC(=N)N)NC(=O)[C@@H]1CSSC[C@@H]2NC(=O)[C@H](C)NC(=O)[C@H](CCCNC(=N)N)NC(=O)[C@H](CCCCN)NC(=O)[C@H](CO)NC(=O)[C@H](CC(=O)O)NC(=O)[C@@H]3CSSC[C@H](NC(=O)[C@H](CCC(=O)O)NC(=O)[C@H](CC(C)C)NC(=O)CNC(=O)[C@H](CCC(=O)O)NC(=O)[C@H](CSSC[C@H](NC(=O)[C@@H](N)Cc4ccc(O)cc4)C(=O)N[C@@H](CCC(N)=O)C(=O)N[C@@H](CCCCN)C(=O)N[C@@H](Cc4ccc(I)cc4)C(=O)N[C@@H](CCSC)C(=O)N[C@@H](Cc4c[nH]c5ccccc45)C(=O)N[C@@H]([C@@H](C)O)C(=O)N3)NC2=O)C(=O)N[C@@H](CCCCN)C(=O)N[C@@H](CC(C)C)C(=O)N[C@@H](Cc2c[nH]c3ccccc23)C(=O)N1)C(N)=O [compound 192] | 78 | >455 | – | Nav1.4/Nav1.7 ([3]; Table 8): 30 |
| CC[C@H](C)[C@H](NC(=O)[C@H](CCC(=O)O)NC(=O)[C@H](CCCCN)NC(=O)[C@H](CCCNC(=N)N)NC(=O)[C@@H]1CSSC[C@@H]2NC(=O)[C@H](C)NC(=O)[C@H](CCCNC(=N)N)NC(=O)[C@H](CCCCN)NC(=O)[C@H](CO)NC(=O)[C@H](CC(=O)O)NC(=O)[C@@H]3CSSC[C@H](NC(=O)[C@H](CCCNC(=N)N)NC(=O)[C@H](CC(C)C)NC(=O)CNC(=O)[C@H](CCC(=O)O)NC(=O)[C@H](CSSC[C@H](NC(=O)[C@@H](N)Cc4ccc(O)cc4)C(=O)N[C@@H](CCC(N)=O)C(=O)N[C@@H](CCCCN)C(=O)N[C@@H](Cc4c[nH]c5ccccc45)C(=O)N[C@@H](CCSC)C(=O)N[C@@H](Cc4c[nH]c5ccccc45)C(=O)N[C@@H]([C@@H](C)O)C(=O)N3)NC2=O)C(=O)N[C@@H](CCCCN)C(=O)N[C@@H](CC(C)C)C(=O)N[C@@H](Cc2c[nH]c3ccccc23)C(=O)N1)C(N)=O [SEQ ID NO: 69, [Glu28]JzTx-V(1-29)] | – | – | – | selectivity for Nav1.7 over Nav1.6 ([2]; PatchXpress): 437 fold |
| C#CC[C@H](N)C(=O)N[C@@H](Cc1ccc(O)cc1)C(=O)N[C@H]1CSSC[C@@H]2NC(=O)[C@@H]3CSSC[C@@H](C(=O)N[C@@H](CCCNC(=N)N)C(=O)N[C@@H](CCCCN)C(=O)N[C@@H](CCC(=O)O)C(=O)N[C@H](C(N)=O)[C@@H](C)CC)NC(=O)[C@H](Cc4c[nH]c5ccccc45)NC(=O)[C@H](CC(C)C)NC(=O)[C@H](CCCCN)NC(=O)[C@H](CSSC[C@H](NC(=O)[C@H]([C@@H](C)O)NC(=O)[C@H](Cc4c[nH]c5ccccc45)NC(=O)[C@H](CCCC)NC(=O)[C@H](Cc4c[nH]c5ccccc45)NC(=O)[C@H](CCCCN)NC(=O)[C@H](CCC(N)=O)NC1=O)C(=O)N[C@@H](CC(=O)O)C(=O)N[C@@H](CO)C(=O)N[C@@H](CCCCN)C(=O)N[C@@H](CCCNC(=N)N)C(=O)N[C@@H](C)C(=O)N3)NC(=O)[C@H](C)NC(=O)[C@H](CC(C)C)NC(=O)CNC(=O)[C@H](CCC(=O)O)NC2=O [compound 727] | – | – | – | IC50 ([1]; Table 12, tonic block): 905 nM; Nav1.6/Nav1.7 [2]: >11; IC50 [2]: > 10000 nM |
| CC[C@H](C)[C@H](NC(=O)[C@H](Cc1ccc(O)cc1)NC(=O)[C@H](CCCCN)NC(=O)[C@H](CCCNC(=N)N)NC(=O)[C@@H]1CSSC[C@@H]2NC(=O)[C@H](C)NC(=O)[C@H](CCCNC(=N)N)NC(=O)[C@H](CCCCN)NC(=O)[C@H](CO)NC(=O)[C@H](CC(=O)O)NC(=O)[C@@H]3CSSC[C@H](NC(=O)[C@H](CCC(=O)O)NC(=O)[C@H](CC(C)C)NC(=O)CNC(=O)[C@H](CCC(=O)O)NC(=O)[C@H](CSSC[C@H](NC(=O)[C@@H](N)Cc4ccc(O)cc4)C(=O)N[C@@H](CCC(N)=O)C(=O)N[C@@H](CCCCN)C(=O)N[C@@H](Cc4c[nH]c5ccccc45)C(=O)N[C@@H](CCSC)C(=O)N[C@@H](Cc4c[nH]c5ccccc45)C(=O)N[C@@H]([C@@H](C)O)C(=O)N3)NC2=O)C(=O)N[C@@H](CCCCN)C(=O)N[C@@H](CC(C)C)C(=O)N[C@@H](Cc2c[nH]c3ccccc23)C(=O)N1)C(N)=O [compound 137] | 1411 | 12667 | 41 | – |
